Drawing on PubChem BioAssay AID977627 (Broad Institute, 2014), this text covers AC50 for 2 compounds.

Results filed as inconclusive are left out.

The test relates to E. coli H38 humanized ribosome GFP strain, fluorescence, 24 h. Nature of the test: growth inhibition of wild-type RFP versus H38-humanized GFP E. coli, dose response, H38 mutant GFP vs wild-type RFP, cherry-pick (AID 977627). Particulars: measured here: total growth OD600.

The AC50 is the concentration giving half of the maximal activity seen. Read a low AC50 as greater potency. Regarding `COC(=O)c1c(NC(=O)CCC(=O)O)sc(Cc2ccccc2)c1C`, the AC50 is more than 100 µM. Under `CC1(Cc2ccccc2C#N)C(=O)Nc2cc(-c3ccccc3Cl)ccc21` (configuration not stated) stands 41.9 µM.
